Assay results taken from US8497083B2, “Fructosyl amino acid oxidase” (priority 2009, dated 2013).

Tests used:
[1] = molecular target: fructosyl amino acid oxidase from Phaeosphaeria nodorum (PnFPOX, SEQ ID NO: 1) variant N56A (Parastagonospora nodorum, UniProt Q0UIL6, N56A); experiment: Dehydrogenase activity kinetics (mPMS/DCIP), PnFPOX N56A mutant; format: biochemical; conditions: purified enzyme, 25° C., pH 7.0
From the text: (§1) As used herein, “dehydrogenase activity” is an enzymatic activity (Vmax) of the fructosyl amino acid oxidase to catalyze oxidation of fructosyl amino acid to generate 2-keto-D-glucose and the corresponding amino acid while utilizing an electron mediator other than oxygen as an electron acceptor. The dehydrogenase activity may be assayed by measuring the amount of electrons transferred to the mediator using, for example, one of mPMS/DCIP (1-methoxy-5-methylphenazinium methylsulfate/2,6-dichloroindophenol), cPES (trifluoro-acetate-1-(3-carboxy-propoxy)-5-ethyl-phenanzinium, NA BM31—1144 (N,N-bis-(hydroxyethyl)-3-methoxynitrosoaniline hydrochloride, NA BM31—1008 (N,N-bis-hydroxyethyl-4-nitrosoaniline) and N—N-4-dimethyl-nitrosoaniline.
(§2) As used herein in the context of the relative or quantitative activity, the dehydrogenase activity is specifically defined to be the mole amount of the substrate (fructosyl amino acid) oxidized per unit time measured by the amount of electrons transferred to the mediator at 25° C. in 10 mM PPB (pH 7.0), 0.6 mM DCIP, and 6 mM methoxy PMS (mPMS).
Escherichia coli BL21 (DE3) cells harboring expression vectors of N1-1 FAOD (SEQ ID NO: 2) mutants were grown in 150 ml of LB medium containing 50 μg/ml kanamycin at 37° C. After reaching an A660 value of 0.6, 0.3 mM IPTG was added and incubated at 25° C. for an additional 5 hours. The cells were collected by centrifugation and washed twice with 0.85% NaCl.aq. Then, the cells were resuspended in 10 mM Potassium Phosphate Buffer (PPB) pH 7.0 and lysed by ultrasonic homogenizer. The lysate was centrifuged at 10,000×g, 4° C. for 10 min, and the supernatant was centrifuged at 50,000 rpm, 4° C. for 60 min, then the supernatant was dialyzed against 10 mM PPB (pH 7.0). The oxidase activity was assayed at 25° C. in 10 mM PPB, pH 7.0, 1.5 mM TODB, 2 U/ml horseradish peroxidase (POD), and 1.5 mM 4-aminoantipyrine (4AA) in the presence of substrates (0.2, 0.5, 0.75, 1, 2, 5 mM f-^αVal […]). The formation of quinoneimine dye was measured spectrophotometrically at 546 nm. The dehydrogenase activity was assayed at 25° C. in 10 mM PPB (pH 7.0), 0.6 mM DCIP, and 6 mM methoxy PMS (mPMS) in the presence of substrates (0.2, 0.5, 1, 2, 5 mM f-^αVal or 5 mM f-^αVal-His).
Mutations were introduced using site-directed mutagenesis as in Example 1, and BL21 (DE3) cells were transformed with an expression vector containing wild-type or mutant PnFPOX (SEQ ID NO: 1). The cultured cells were resuspended in 10 mM PPB, pH 7.0, and lysed by sonication. The lysate was centrifuged at 10,000 g at 4° C. for 20 min, and the supernatant was centrifuged at 50,000 rpm at 4° C. for 60 min. The oxidase and dehydrogenase activities were measured as in Example 1. […]

[2] = molecular target: T1, fructosyl amino acid oxidase from Pichia sp. N1-1 (N1-1 FAOD), wild type, SEQ ID NO: 2 (Pichia sp. N1-1, UniProt Q3L8U0); experiment: Dehydrogenase activity kinetics (mPMS/DCIP), N1-1 FAOD wild type; format: biochemical; conditions: mPMS/DCIP over 4AA/TODB/POD
T1 construct: 427 aa
T1 sequence (Q3L8U0 1-427): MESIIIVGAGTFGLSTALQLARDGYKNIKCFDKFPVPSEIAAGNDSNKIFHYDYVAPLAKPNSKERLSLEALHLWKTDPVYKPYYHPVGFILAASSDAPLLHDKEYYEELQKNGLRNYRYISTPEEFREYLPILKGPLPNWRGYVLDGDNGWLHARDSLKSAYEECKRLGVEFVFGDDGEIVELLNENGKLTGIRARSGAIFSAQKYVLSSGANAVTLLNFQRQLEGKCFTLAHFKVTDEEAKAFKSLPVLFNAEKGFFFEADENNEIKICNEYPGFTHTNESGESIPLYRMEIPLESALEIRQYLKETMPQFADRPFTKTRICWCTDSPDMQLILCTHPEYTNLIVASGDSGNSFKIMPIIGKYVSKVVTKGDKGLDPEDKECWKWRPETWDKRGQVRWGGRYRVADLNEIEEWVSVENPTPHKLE
From the text: as §1, §2
Escherichia coli BL21 (DE3) cells harboring expression vectors of N1-1 FAOD (SEQ ID NO: 2) mutants were grown in 150 ml of LB medium containing 50 μg/ml kanamycin at 37° C. […] The formation of quinoneimine dye was measured spectrophotometrically at 546 nm. […]

fructosyl amino acid oxidase from Phaeosphaeria nodorum (PnFPOX, SEQ ID NO: 1) variant N56A, sequence (Q0UIL6 whole entry N56A): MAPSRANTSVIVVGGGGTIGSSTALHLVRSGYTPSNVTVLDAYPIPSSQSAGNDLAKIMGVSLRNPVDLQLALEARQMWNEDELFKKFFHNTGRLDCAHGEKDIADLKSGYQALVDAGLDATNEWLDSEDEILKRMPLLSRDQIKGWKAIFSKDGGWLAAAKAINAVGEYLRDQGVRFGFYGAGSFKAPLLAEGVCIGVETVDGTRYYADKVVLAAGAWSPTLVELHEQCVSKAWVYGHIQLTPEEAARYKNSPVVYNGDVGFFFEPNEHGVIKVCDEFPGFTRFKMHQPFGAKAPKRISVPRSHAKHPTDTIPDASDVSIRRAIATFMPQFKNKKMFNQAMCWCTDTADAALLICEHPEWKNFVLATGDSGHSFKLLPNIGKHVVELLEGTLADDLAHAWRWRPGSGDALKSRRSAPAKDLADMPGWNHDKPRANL

CC(C)[C@H](NCC1(O)OC[C@@H](O)[C@@H](O)[C@@H]1O)C(=O)O (stereo partly drawn) [f-αVal, fructosyl valine] was tested, and the Vmax [1] was 95.1 U/mg, the “B/A (Vmax dehydrogenase/Vmax oxidase)” value ([2]; crude preparation) was 1.2 and the “B/A (Vmax dehydrogenase/Vmax oxidase)” value ([2]; purified enzyme) was 1.1.
